From patent US10329320B2, “Neuroactive steroids, compositions, and uses thereof” (Sage Therapeutics, Inc., priority 2015, dated 2019) come the findings set out here.

As a reminder, the IC50 is the concentration that inhibits the measured activity by half.

The experiment concerns the target GABAA receptor ([35S]-TBPS binding, rat brain cortical membranes). The experiment in a line: Steroid inhibition of [35S]-TBPS binding (radioligand displacement). The conditions noted are these: 3 nM [35S]-TBPS, in the presence of 5 μM GABA. Here is the method:
TBPS binding assays using rat brain cortical membranes in the presence of 5 μM GABA has been described (Gee et al, J. Pharmacol. Exp. Ther. 1987, 241, 346-353; Hawkinson et al, Mol. Pharmacol. 1994, 46, 977-985; Lewin, A. H et al., Mol. Pharmacol. 1989, 35, 189-194).
Briefly, cortices are rapidly removed following decapitation of carbon dioxide-anesthetized Sprague-Dawley rats (200-250 g). The cortices are homogenized in 10 volumes of ice-cold 0.32 M sucrose using a glass/teflon homogenizer and centrifuged at 1500×g for 10 min at 4° C. The resultant supernatants are centrifuged at 10,000×g for 20 min at 4° C. to obtain the P2 pellets. The P2 pellets are resuspended in 200 mM NaCl/50 mM Na—K phosphate pH 7.4 buffer and centrifuged at 10,000×g for 10 min at 4° C. This washing procedure is repeated twice and the pellets are resuspended in 10 volumes of buffer. Aliquots (100 μL) of the membrane suspensions are incubated with 3 nM [^35S]-TBPS and 5 μL aliquots of test drug dissolved in dimethyl sulfoxide (DMSO) (final 0.5%) in the presence of 5 μM GABA. The incubation is brought to a final volume of 1.0 mL with buffer. Nonspecific binding is determined in the presence of 2 μM unlabeled TBPS and ranged from 15 to 25%. Following a 90 min incubation at room temp, the assays are terminated by filtration through glass fiber filters (Schleicher and Schuell No. 32) using a cell harvester (Brandel) and rinsed three times with ice-cold buffer. Filter bound radioactivity is measured by liquid scintillation spectrometry. Non-linear curve fitting of the overall data for each drug averaged for each concentration is done using Prism (GraphPad). […] The concentration of test compound producing 50% inhibition (IC50) of specific binding and the maximal extent of inhibition (Imax) are determined for the individual experiments with the same model used for the overall data and then the means ±SEM.s of the individual experiments are calculated.
Various compounds are or can be screened to determine their potential as modulators of [^35S]-TBPS binding in vitro. These assays are or can be performed in accordance with the above discussed procedures.
(In general: Loss of bound radioactivity is the signal in a displacement assay; it reports binding, not function.)
As to `COC[C@]12CC[C@@](C)(O)C[C@H]1CC[C@H]1[C@@H]3CC[C@H](C(=O)Cn4ncc5ccc(F)cc54)[C@@]3(C)CC[C@@H]12` [Compound 15], the IC50 was < 0.01 µM.

For the molecule `COC[C@]12CC[C@@](C)(O)C[C@H]1CC[C@H]1[C@@H]3CC[C@H](C(=O)Cn4ccnc4C)[C@@]3(C)CC[C@@H]12` [Compound 64], the IC50 lay in the range of 0.1 to 0.5 µM.

`COC[C@]12CC[C@@](C)(O)C[C@@H]1CC[C@H]1[C@@H]3CC[C@H](C(=O)Cn4nnc5cc(Cl)cnc54)[C@@]3(C)CC[C@@H]12` [Compound 12]: the IC50 is < 0.01 µM.

`COC[C@]12CC[C@@](C)(O)C[C@H]1CC[C@H]1[C@@H]3CC[C@H](C(=O)Cn4cc([S+](C)[O-])cn4)[C@@]3(C)CC[C@@H]12` (some centres unmarked) [Compound 35]: the IC50 was > 0.5 µM.

With `COC[C@]12CC[C@@](C)(O)C[C@H]1CC[C@H]1[C@@H]3CC[C@H](C(=O)Cn4nnc5cccc(OC)c54)[C@@]3(C)CC[C@@H]12` [Compound 29], the concentration for half-maximal inhibition (IC50) is < 0.01 µM.

As to `COC[C@]12CC[C@@](C)(O)C[C@H]1CC[C@H]1[C@@H]3CC[C@H](C(=O)Cn4nc5ccc(OC)cc5n4)[C@@]3(C)CC[C@@H]12` [Compound 27], the IC50 was < 0.01 µM.

Turning to `COC[C@]12CC[C@@](C)(O)C[C@H]1CC[C@H]1[C@@H]3CC[C@H](C(=O)Cn4cnc(F)c4)[C@@]3(C)CC[C@@H]12` [Compound 52], the IC50 is 0.01 to 0.05 µM.

As to `COC[C@]12CC[C@@](C)(O)C[C@H]1CC[C@H]1[C@@H]3CC[C@H](C(=O)Cn4nnc5c(OC)cccc54)[C@@]3(C)CC[C@@H]12` [Compound 28], the IC50 was < 0.01 µM.

For `COC[C@]12CC[C@@](C)(O)C[C@@H]1CC[C@H]1[C@@H]3CC[C@H](C(=O)Cn4cc5ccc(OC)cc5n4)[C@@]3(C)CC[C@@H]12` [Compound 48], the IC50 fell in the range of 0.05 to 0.1 µM.

Regarding `COC[C@]12CC[C@@](C)(O)C[C@@H]1CC[C@H]1[C@@H]3CC[C@H](C(=O)Cn4ncc5cc(OC)ccc54)[C@@]3(C)CC[C@@H]12` [Compound 43], the IC50 was in the range of 0.05 to 0.1 µM.

As to `COC[C@]12CC[C@@](C)(O)C[C@H]1CC[C@H]1[C@@H]3CC[C@H](C(=O)Cn4cc([S+](C)[O-])cn4)[C@@]3(C)CC[C@@H]12` (some centres unmarked) [Compound 22], the IC50 lay in the range of 0.1 to 0.5 µM.

Turning to `COC[C@]12CC[C@@](C)(O)C[C@H]1CC[C@@H]1[C@@H]2CC[C@]2(C)C(C(=O)Cn3nnnc3C)CC[C@@H]12` (some centres unmarked) [Compound 74], the 50% inhibitory concentration (IC50) lay in the range of 0.1 to 0.5 µM.

Take `CC(C)OC[C@]12CC[C@@](C)(O)C[C@H]1CC[C@H]1[C@@H]3CC[C@H](C(=O)Cn4nnc5c(F)c(F)ccc54)[C@@]3(C)CC[C@@H]12` [Compound 68]: the half-maximal inhibitory concentration (IC50) is < 0.01 µM.

`COC[C@]12CC[C@@](C)(O)C[C@@H]1CC[C@H]1[C@@H]3CC[C@H](C(=O)Cn4nnc5c(F)c(Cl)ccc54)[C@@]3(C)CC[C@@H]12` [Compound 51]: the IC50 was < 0.01 µM.

For the molecule `COC[C@]12CC[C@@](C)(O)C[C@@H]1CC[C@H]1[C@@H]3CC[C@H](C(=O)Cn4cc(OC(C)C)cn4)[C@@]3(C)CC[C@@H]12` [Compound 38], the IC50 lay within 0.05 to 0.1 µM.

On to `COC[C@]12CC[C@@](C)(O)C[C@H]1CC[C@H]1[C@@H]3CC[C@H](C(=O)Cn4cc5ccccc5n4)[C@@]3(C)CC[C@@H]12` [Compound 19], for which the IC50 was < 0.01 µM.

For `COC[C@]12CC[C@@](C)(O)C[C@@H]1CC[C@H]1[C@@H]3CC[C@H](C(=O)Cn4cnc(F)c4)[C@@]3(C)CC[C@@H]12` [Compound 59], the concentration for half-maximal inhibition (IC50) lay within 0.1 to 0.5 µM.

`COC[C@]12CC[C@@](C)(O)C[C@@H]1CC[C@H]1[C@@H]3CC[C@H](C(=O)Cn4ncc(C(=O)O)n4)[C@@]3(C)CC[C@@H]12` [Compound 81]: the IC50 was > 0.5 µM.

Take `COC[C@]12CC[C@@](C)(O)C[C@H]1CC[C@H]1[C@@H]3CC[C@H](C(=O)Cn4ncc5cc(F)ccc54)[C@@]3(C)CC[C@@H]12` [Compound 16]: the IC50 is < 0.01 µM.

As for `COC[C@]12CC[C@@](C)(O)C[C@@H]1CC[C@H]1[C@@H]3CC[C@H](C(=O)Cn4nc5cc(Cl)cnc5n4)[C@@]3(C)CC[C@@H]12` [Compound 13], the IC50 is < 0.01 µM.

For `COC[C@]12CC[C@@](C)(O)C[C@@H]1CC[C@H]1[C@@H]3CC[C@H](C(=O)Cn4cc5cc(F)ncc5n4)[C@@]3(C)CC[C@@H]12` [Compound 75], the IC50 fell in the range of 0.1 to 0.5 µM.

For `COC[C@]12CC[C@@](C)(O)C[C@@H]1CC[C@H]1[C@@H]3CC[C@H](C(=O)Cn4ccnc4C#N)[C@@]3(C)CC[C@@H]12` [Compound 36], the IC50 lay in the range of 0.1 to 0.5 µM.

Regarding `COC[C@]12CC[C@@](C)(O)C[C@@H]1CC[C@H]1[C@@H]3CC[C@H](C(=O)Cn4cc5c(OC)cccc5n4)[C@@]3(C)CC[C@@H]12` [Compound 44], the IC50 lay within 0.01 to 0.05 µM.

In the case of `COC[C@]12CC[C@@](C)(O)C[C@@H]1CC[C@H]1[C@@H]3CC[C@H](C(=O)Cn4cc5c(OC)cccc5n4)[C@@]3(C)CC[C@@H]12` [Compound 40], the IC50 lay within 0.05 to 0.1 µM.

As to `CC(C)OC[C@]12CC[C@@](C)(O)C[C@H]1CC[C@H]1[C@@H]3CC[C@H](C(=O)Cn4nc5ccc(F)c(F)c5n4)[C@@]3(C)CC[C@@H]12` [Compound 70], the IC50 was < 0.01 µM.

Turning to `COC[C@]12CC[C@@](C)(O)C[C@@H]1CC[C@H]1[C@@H]3CC[C@H](C(=O)Cn4cc5ccc(OC)cc5n4)[C@@]3(C)CC[C@@H]12` [Compound 42], the IC50 lay in the range of 0.01 to 0.05 µM.

For `CC(C)OC[C@]12CC[C@@](C)(O)C[C@H]1CC[C@H]1[C@@H]3CC[C@H](C(=O)Cn4nnc5ccc(F)c(F)c54)[C@@]3(C)CC[C@@H]12` [Compound 69], the 50% inhibitory concentration (IC50) is < 0.01 µM.

`COC[C@]12CC[C@@](C)(O)C[C@H]1CC[C@H]1[C@@H]3CC[C@H](C(=O)Cn4nnnc4C)[C@@]3(C)CC[C@@H]12` [Compound 63]: the IC50 is 0.1 to 0.5 µM.

`COC[C@]12CC[C@@](C)(O)C[C@@H]1CC[C@H]1[C@@H]3CC[C@H](C(=O)Cn4cc(OC)cn4)[C@@]3(C)CC[C@@H]12` [Compound 37]: the IC50 was in the range of 0.1 to 0.5 µM.

As for `COC[C@]12CC[C@@](C)(O)C[C@@H]1CC[C@H]1[C@@H]3CC[C@H](C(=O)Cn4nc5cc(F)cc(F)c5n4)[C@@]3(C)CC[C@@H]12` [Compound 10], the IC50 is < 0.01 µM.

`COC[C@]12CC[C@@](C)(O)C[C@H]1CC[C@H]1[C@@H]3CC[C@H](C(=O)Cn4cc(SC)cn4)[C@@]3(C)CC[C@@H]12` [Compound 21]: the IC50 is < 0.01 µM.

Take `COC[C@]12CC[C@@](C)(O)C[C@@H]1CC[C@H]1[C@@H]3CC[C@H](C(=O)Cn4ncc(C(N)=O)n4)[C@@]3(C)CC[C@@H]12` [Compound 83]: the IC50 was in the range of 0.1 to 0.5 µM.

With `COC[C@]12CC[C@@](C)(O)C[C@H]1CC[C@H]1[C@@H]3CC[C@H](C(=O)Cn4cc5ccc(F)cc5n4)[C@@]3(C)CC[C@@H]12` [Compound 14], the IC50 was < 0.01 µM.

Take `COC[C@]12CC[C@@](C)(O)C[C@H]1CC[C@H]1[C@@H]3CC[C@H](C(=O)Cn4cc(N)cn4)[C@@]3(C)CC[C@@H]12` [Compound 66]: the IC50 lay within 0.01 to 0.05 µM.

For the molecule `CCOC(=O)c1cn(CC(=O)[C@H]2CC[C@H]3[C@@H]4CC[C@H]5C[C@](C)(O)CC[C@]5(COC)[C@H]4CC[C@]23C)nn1` [Compound 80], the IC50 lay in the range of 0.1 to 0.5 µM.

In the case of `COC[C@]12CC[C@@](C)(O)C[C@@H]1CC[C@H]1[C@@H]3CC[C@H](C(=O)Cn4ncc5cccc(OC)c54)[C@@]3(C)CC[C@@H]12` [Compound 41], the IC50 was 0.05 to 0.1 µM.

For the molecule `COC[C@]12CC[C@@](C)(O)C[C@H]1CC[C@H]1[C@@H]3CC[C@H](C(=O)Cn4cc5cc(F)ccc5n4)[C@@]3(C)CC[C@@H]12` [Compound 17], the IC50 is 0.01 to 0.05 µM.

In the case of `COC[C@]12CC[C@@](C)(O)C[C@@H]1CC[C@H]1[C@@H]3CC[C@H](C(=O)Cn4ncc(CO)n4)[C@@]3(C)CC[C@@H]12` [Compound 85], the half-maximal inhibitory concentration (IC50) is > 0.5 µM.

`COC[C@]12CC[C@@](C)(O)C[C@H]1CC[C@H]1[C@@H]3CC[C@H](C(=O)Cn4nnc5cc(OC)ccc54)[C@@]3(C)CC[C@@H]12` [Compound 26]: the IC50 is < 0.01 µM.

Regarding `COC[C@]12CC[C@@](C)(O)C[C@@H]1CC[C@H]1[C@@H]3CC[C@H](C(=O)Cn4ncc5ccc(OC)cc54)[C@@]3(C)CC[C@@H]12` [Compound 49], the IC50 was 0.05 to 0.1 µM.

On to `COC[C@]12CC[C@@](C)(O)C[C@H]1CC[C@H]1[C@@H]3CC[C@H](C(=O)Cn4nc5ccc(Cl)c(F)c5n4)[C@@]3(C)CC[C@@H]12` [Compound 24], for which the IC50 was < 0.01 µM.

With `COC[C@]12CC[C@@](C)(O)C[C@@H]1CC[C@H]1[C@@H]3CC[C@H](C(=O)Cn4cc(C(=O)O)nn4)[C@@]3(C)CC[C@@H]12` [Compound 82], the IC50 was > 0.5 µM.

Regarding `COC[C@]12CC[C@@](C)(O)C[C@H]1CC[C@H]1[C@@H]3CC[C@H](C(=O)Cn4nc5cccc(OC)c5n4)[C@@]3(C)CC[C@@H]12` [Compound 30], the IC50 is < 0.01 µM.

Consider `COC[C@]12CC[C@@](C)(O)C[C@H]1CC[C@H]1[C@@H]3CC[C@H](C(=O)Cn4cc(SC)cn4)[C@@]3(C)CC[C@@H]12` [Compound 34], for which the half-inhibitory concentration (IC50) fell in the range of 0.01 to 0.05 µM.
